Laboratory results: patent publication US20150031739A1, “PANOBINOSTAT FOR USE IN THE TREATMENT OF HIV-1” (Aarhus Universitet, priority 2012, published 2015)

Key:
[1] = test system: CXCR4; conditions: CD4+ T-cells; cited from earlier work
[2] = test system: CCR5; conditions: monocytes; cited from earlier work
[3] = test system: HIV-1 expression in U1 cells; test: HIV-1 activation from U1 cells (p24 gag ELISA); type: cell-based; conditions: 48 hours
Description: (§1) HIV-1 activation from U1 cells: U1 cells (obtained through the NIH AIDS Reagent Program) are seeded at 2*10^5/well in a 96-well format in 100 uL RPMI media supplemented with 10% heat inactivated Foetal Bovine Serum and 1% penicillin/streptomycin. HDACi and PMA as positive control is added at desired concentrations in 100 uL. Identical DMSO levels is used for untreated control. All stimulations are performed in triplicate. 48 hours later supernatant is harvested and left for inactivation in 1% Empegen for 1 hour. Levels of HIV-1 p24 gag levels is determined by ELISA as described by the manufacturer (Aalto Bioreagents, Dublin, Ireland).

[4] = test system: HIV-1 expression in ACH2 cells; test: HIV-1 activation from ACH2 cells (p24 gag ELISA); type: cell-based; conditions: 48 hours
Description: as §1, with “ACH2” for “U1”, “1*10^5/well” for “2*10^5/well”, “Samples are diluted 1/500 and levels” for “Levels”, “gag” for “gag levels”

[5] = 20 mg oral; cited from earlier work
[6] = test system: CD69 expression in CD4+ T-cells; test: Activation of primary T lymphocytes (CD69 expression, flow cytometry); type: cell-based, human; conditions: 16 hours
Description: Expression of the early activation marker CD69 was assessed by flow cytometry in 8 separate experiments with data from one representative experiment shown in figure.
Activation of primary T lymphocytes: PBMC's are purified using Ficoll Paque gradient centrifugation from fresh blood obtained from healthy donors. 5*10^5 cells are stimulated by different concentrations of HDACi in final volume of 500 uL RPMI media supplemented with 10% heat inactivated Foetal Bovine Serum and 1% penicillin/streptomycin. After 16 hours cells are harvested and washed once in PBS. Cells are stained with Live-dead near IR at a final concentration of 2 uM (Invitrogen, Denmark) for 30 min on ice. Cells are washed twice in PBS. Five uL Fc Block (Sigma, Denmark) at 10 mg/mL is added and cells are incubated 10 min on ice. Cells are subsequently stained with 5 uL CD4 PerCPCy5.5, 5 uL CD27 PE-Cy7, 7 uL CD45RA FITC, 20 uL CCR7 PE all (BD, USA) and 10 uL CD69 APC (BioLegend, USA) for 30 min on ice. Lastly, cells are washed once in PBS and resuspended in FACS flow buffer and stored on ice until analysis by flow cytometry.

[7] = test system: CD4+ T cells; test: CD4+ T cell counts in blood during panobinostat treatment; type: in vivo, human; conditions: intermittent dosing over 51 days, 20 mg oral TIW every other week, HIV-1 patients on HAART
Description: Measurement of CD4+ T cell counts was performed by flow cytometry as part of routine diagnostics evaluation of HIV-1 patients.

[8] = test system: HIV proviral DNA in CD4+ T cells; test: Total HIV proviral DNA in purified CD4+ T cells of treated patients; type: in vivo, HIV-1
Description: DNA was isolated from 1×10^6 CD4+ T cells using AllPrep DNA/RNA Mini kit according to the manufacturer's specifications (Qiagen, Denmark). Cell equivalents were based on RNAseP amplification. The following primers were used to target human RNAseP 5′-[…]-3′ (forward) (SEQ ID NO: 5) and 5′-[…]-3′ (reverse) (SEQ ID NO: 6). Amplification reactions were carried out in duplicates with a primer concentration of 0.5 μM, 10 μL SsoFast™ EvaGreen® Supermix and 1 μL 100-fold diluted DNA as template in 20 μl total volume.
Using the RNAsePgenome copy number, sample DNA was diluted to 50,000 cell equivalents per PCR reaction. To determine the frequency of CD4+ T cells carrying HIV DNA, we prepared a standard curve obtained by serially diluted DNA from 8E5 cells (carrying one integrated provirus per genome) combined with DNA from HIV-negative PBMCs (305, 153, 76, 38, 19, 9 HIV DNA copies and 100,000 HIV negative cell equivalents per well). The following primers were used to target HIV-DNA: 5′-[…]-3′ (forward) (SEQ ID NO: 7) and 5′-[…]-3′ (reverse) (SEQ ID NO: 8).
The amplification reaction was carried out in triplicates with a primer concentration of 0.5 μM, 10 μL SsoFast™ EvaGreen® Supermix and 100,000 genomes as template in 20 μl total volume on a Bio-Rad CFX96™ Real-time PCR Platform. PCR conditions were as follows: A denaturation step at 95° C. followed by 45 cycles of 10 seconds at 95° C. and 25 seconds at 62° C. Subsequently a melt curve was obtained heating from 65° C. to 95° C. with a 0.5° C. increment for 5 seconds. Cycle cut off was set at 39 cycles. Amplification products were verified by dissociaton curve. Copy number of HIV DNA per 1×10^6 CD4+ T cells was calculated from the real-time PCR results.
From the HIV DNA standard curve we set a lower limit of quantification of 12 copies HIV DNA/10^6 CD4+ T cells.
Samples were drawn from two patients at Baseline (prior to initiation of panobinostat treatment) and after 4 weeks and 8 weeks cyclic panobinostat treatment 20 mg TIW every other week.

[9] = test system: histone H3 acetylation; test: Histone H3 acetylation in PBMC's of patients during panobinostat administration; type: in vivo, human
Description: One million freshly isolated PBMC's harvested from CPT vacutainers (BD Bioscience, UK) were washed in ice-cold PBS with 1% FBS. Subsequently cells were fixed in 200 uL 1% paraformaldehyde for 15 min on ice and afterwards washed in PBS. […] Following a wash in FACS buffer (PBS/2% FBS), cells were blocked in PBS with 10% FBS for 20 min at RT. For each patient one sample was incubated for 1 hr at RT with either 5 uL primary anti-acetyl histone H3 antibody (Millipore, DK) or 5μ isotype control (final antibody concentration: 10 μg/m). Subsequently, cells were washed in FACS buffer and incubated with 5 uL secondary (Alexa-Flour 488 donkey anti-rabbit IgG from Life Technologies, DK) for 1 hr in the dark at RT (final antibody concentration: 6 μg/m). Lastly, cells were washed in FACS buffer, resuspended in PBS and analyzed on a FACS Canto II.

[10] = test system: cell-associated unspliced HIV RNA; test: Cell associated unspliced Gag HIV RNA in CD4+ T cells of treated patients; type: in vivo, HIV-1
Description: RNA purified from 1 million CD4+ T cells was treated with DNAse and split in 4 portions. Preparation of cDNA was performed by Superscript III Reverse Transcriptase as described by the manufacturer using both Oligo dT and random hexamer priming (Life Technologies, DK). Each cDNA sample was assayed in duplicate in a semi-nested real-time PCR quantification yielding eight replicates for each patient sample.
First round amplification was carried out with primers 5′-[…]-3′ (SEQ ID NO: 1) and 5′-[…]-3′ (SEQ ID NO: 2) with AmpliTaq gold mastermix (Life Technologies, DK) for a limited 15 cycles and input of 5 uL cDNA.
PCR conditions were as follows: A denaturation step at 95° C. for 10 minutes followed by 15 cycles of 20 seconds at 94° C., 40 seconds at 55° C. and 40 seconds at 72° C. Second round real-time PCR was performed using SYBR green mastermix (Life Technologies, DK) and primers 5′-[…]-3′ (SEQ ID NO: 3) and 5′-[…]-3′ (SEQ ID NO: 4) on a Bio-Rad CFX96™ Real-time PCR Platform. PCR conditions were as follows: A denaturation step at 95° C. for 10 minutes followed by 45 cycles of 20 seconds at 94° C., 40 seconds at 55° C., 40 seconds at 72° C. Subsequently, a dissociation curve was obtained by heating from 65° C. to 95° C. with a 0.5° C. increment for 5 seconds. A serial diluted standard allow for relative quantification of HIV Gag RNA levels.

[11] = Cytotoxicity of LBH589; type: cell-based; conditions: up to 30 nM
[12] = test system: latently infected cell lines (U1 and ACH2); test: HIV-1 expression from latently infected cell lines, statements for both lines; type: cell-based
Description: as §1
as §1, with “ACH2” for “U1”, “1*10^5/well” for “2*10^5/well”, “Samples are diluted 1/500 and levels” for “Levels”, “gag” for “gag levels”

[13] = test system: latent viral reservoir; conditions: clinical study; effect could not be sustained in further studies; cited from earlier work

## CCN(CC)Cc1ccc2cc(COC(=O)Nc3ccc(C(=O)NO)cc3)ccc2c1 [ITF2357]
[1]
  surface expression of CXCR4: decreased surface expression
[2]
  surface expression of CCR5: decreased surface expression
[3]; 125 nM
  fold increase in median p24 levels with reference to untreated cultures: 3.2 fold
[3]; 250 nM
  fold increase in median p24 levels with reference to untreated cultures: 9.2 fold
[4]; 125 nM
  fold increase in median p24 levels with reference to untreated cultures: 6.2 fold
[4]; 250 nM
  fold increase in median p24 levels with reference to untreated cultures: 18.5 fold

## Cc1[nH]c2ccccc2c1CCNCc1ccc(/C=C/C(=O)NO)cc1 [LBH589, N-Hydroxy-3-[4-[2-(2-methyl-1H-indol-3-yl)ethylaminomethyl]phenyl]-2(E)-propenamide]
[5]
  maximal plasma concentration: approximately 60 nM
[6]; CD4+ T-cells
  concentration at which induction of CD69 expression occurred, compared with other HDACi: much lower concentrations of LBH589 than ITF2357, PXD101, and SAHA
[6]; PBMCs from healthy donors, increasing concentrations (2-31 nM), compared to untreated cells
  proportion of primary T-cells expressing the early activation marker CD69: increased
[6]; central memory T-cells
  CD69 expression in memory T-cell subsets: highest levels
[7]
  effect on CD4+ T cell counts in blood: no immune deterioration
[8]; patient A, end of treatment (8 weeks), baseline 46 copies/10^6 CD4+ T cell
  proviral DNA level: remained low
[8]; patient A, first two treatment cycles (4 weeks), 20 mg TIW every other week, baseline 46 copies/10^6 CD4+ T cell, lower limit of quantification 12 copies
  proviral DNA level: dropped below detection
[8]; patient B, after 4 weeks, baseline 173 copies/10^6 CD4+ T cells
  proviral DNA level: 125 copies/10^6 CD4+ T cell
[8]; patient B, end of treatment (8 weeks), baseline 173 copies/10^6 CD4+ T cells, lower limit of quantification 12 copies
  proviral DNA level: undetectable
[9]; day 4, eight patients, PBMC's, panobinostat 20 mg TIW every other week
  average increase of histone H3 acetylation from baseline: 267%
[9]; off-treatment weeks
  levels of histone acetylation: dropped to near baseline levels
[10]; patient A, first off/on cycle analyzed, off treatment
  cell-associated unspliced Gag HIV RNA: 178 Gag HIV RNA copies
[10]; patient A, first off/on cycle analyzed, on treatment
  cell-associated unspliced Gag HIV RNA: 323 Gag HIV RNA copies
[10]; patient A, second off/on cycle analyzed, off treatment
  cell-associated unspliced Gag HIV RNA: 57 Gag HIV RNA copies
[10]; patient A, second off/on cycle analyzed, on treatment
  cell-associated unspliced Gag HIV RNA: 362 Gag HIV RNA copies
[10]; patient B, first off/on cycle analyzed, off treatment
  cell-associated unspliced Gag HIV RNA: 504 Gag HIV RNA copies
[10]; patient B, first off/on cycle analyzed, on treatment
  cell-associated unspliced Gag HIV RNA: 841 Gag HIV RNA copies
[10]; patient B, second off/on cycle analyzed, off treatment
  cell-associated unspliced Gag HIV RNA: 892 Gag HIV RNA copies
[10]; patient B, second off/on cycle analyzed, on treatment
  cell-associated unspliced Gag HIV RNA: 1196 Gag HIV RNA copies
[11]
  cytotoxicity: No cytotoxicity above background
[12]; direct comparison at the concentration obtained with clinical use
  rank order of induced HIV-1 expression: LBH589>ITF2357 and PXD101>SAHA
[12]; latently infected cell lines
  rank order of potency when stimulating HIV-1 expression: LBH589>ITF2357 and PXD101>SAHA>VPA
[12]; latently infected cell lines U1 and ACH2
  concentration range in which HIV-1 expression is induced: 8 to 32 nM

## O=C(/C=C/c1cccc(S(=O)(=O)Nc2ccccc2)c1)NO [PXD101]
[3]; 125 nM
  fold increase in median p24 levels with reference to untreated cultures: 2.4 fold
[3]; 250 nM
  fold increase in median p24 levels with reference to untreated cultures: 7.4 fold
[4]; 125 nM
  fold increase in median p24 levels with reference to untreated cultures: 5.8 fold
[4]; 250 nM
  fold increase in median p24 levels with reference to untreated cultures: 18.3 fold

## O=C(CCCCCCC(=O)Nc1ccccc1)NO [SAHA, suberoylanilide hydroxamic acid]
[3]; 125 nM
  fold increase in median p24 levels with reference to untreated cultures: 1.0 fold
[3]; 250 nM
  fold increase in median p24 levels with reference to untreated cultures: 1.5 fold
[3]; 500 nM
  fold increase in median p24 levels with reference to untreated cultures: 3.1 fold
[4]; 125 nM
  fold increase in median p24 levels with reference to untreated cultures: 1.4 fold
[4]; 250 nM
  fold increase in median p24 levels with reference to untreated cultures: 2.4 fold
[4]; 500 nM
  fold increase in median p24 levels with reference to untreated cultures: 6.9 fold

## CCCC(CCC)C(=O)O [VPA, valproic acid]
[3]; 0.25 mM
  fold increase in median p24 levels with reference to untreated cultures: 1.4 fold
[3]; 0.5 mM
  fold increase in median p24 levels with reference to untreated cultures: 2.8 fold
[13]
  patients in whom depletion of the latent viral reservoir was seen: 3 of 4
[4]; 0.25 mM
  fold increase in median p24 levels with reference to untreated cultures: 2.1 fold
[4]; 0.5 mM
  fold increase in median p24 levels with reference to untreated cultures: 7.3 fold
